Results published in US20240307335A1, “IRG Blockade to Armor CAR T Cells Against Myeloid Dysfunction” (ROSWELL PARK CANCER INSTITUTE CORPORATION, priority 2023, published 2024).

Key:
iNOS = assay: Griess assay of NO levels in coculture supernatants; type: cell-based, mouse; conditions: L-NIL 50 μM at 48 h, anti-IFN-γ 10 μg/mL at 44 h
Description: Griess assay: 2×10^4 Eμ-myc cells and 2×10^4 CAR T cells were cocultured in the presence or absence of 0.5×10^4 macrophages in a 96-well plate in 120 μl of media. Coculture supernatants were harvested, and nitric oxide levels were measured using Griess reagent system (Promega) according to manufacturer's instructions. Absorbance was read at 560 nm using microplate reader (GloMax, Promega), and NO2 concentrations were determined by standard curve. Standard curve was prepared with diluting 0.1M sodium nitrite standard (provided in the kit) with the culture media used for experiments.

[1] = tested on: CAR T cells cocultured with fresh Eμ-myc cells; assay: Cytokine secretion assay (Ella automated ELISA) with CAR T cells isolated from initial coculture; type: cell-based, mouse; conditions: CAR T cells isolated after 48 h coculture with imMac with agent (L-NIL 50 μM, supernatants at 36 h; anti-IFN-γ 10 μg/mL, at 24 h)
Description: CAR T cell isolation from initial coculture for subsequent downstream assays: 1×10^6 CAR T cells and 1×10^6 Eμ-myc-GFP-FFL cells were cocultured in the absence or presence of 0.25×10^6 macrophages in a 6-well plate in 6 ml of media for 48 h. After initial coculture, cells were harvested, and T cells were isolated using Mouse T Cell Isolation Kit ([…] Technologies). […] Percentage of CAR-expressing T cells was determined with flow cytometry and were subsequently used for downstream assays.
Cytokine secretion assay: 2×10^4 Eμ-myc cells were cocultured with 2×10^4 CAR T cells in a 96-well plate in a total volume of 100 μl of media. Supernatants were collected and analyzed for IFN-γ and TNF-α secretion using Ella automated immunoassay system (Proteinsimple Bio-techne) according to manufacturer's instructions.

[2] = tested on: arginine metabolism by imMac; assay: Global metabolomics (LC-MS) of coculture supernatants; type: cell-based, mouse; conditions: L-NIL (50 PM)
Description: Metabolomics and ^13C6-labeled glucose tracing analyses: For global metabolomics analysis of cell-cultured medium, the cell-free medium was obtained by performing rapid centrifugation (17,000×g, 10 sec, room temperature) to collect the supernatant. The metabolites present in 20 μl of the cell-cultured medium were then extracted using 80 μl of ice-cold MeOH. Following a 30 min incubation on ice and subsequent centrifugation (17,000×g, 20 min, 4° C.), the supernatant was subjected to LC-HRMS analysis.
LC-HRMS analysis was performed on a Vanquish UPLC coupled with a Q-Exactive HF mass spectrometer, employing the same conditions as the previously established methods 76. A ZIC-pHILIC LC column (4.6 mm inner diameter×150 mm length, […], MilliporeSigma, Burlington, MA) with a ZIC-pHILIC guard column (4.6 mm inner diameter×20 mm length, MilliporeSigma, Burlington, MA) was used for chromatographic separation at a column temperature of 30° C. The mobile phases included 10 mM (NH4)2CO3 and 0.05% NH40H in H2O for mobile phase A, and […]. The LC gradient conditions were as follows: 0 to 13 min: a decreasing of 80% to 20% of mobile phase B, 13 to 15 min: 20% of mobile phase B. The ionization was set to negative mode, with the MS scan range set to 60 to 1000 m/z. The mass resolution was 70,000, and the AGC target was 1×106. The sample loading volume was 5 μl. The unlabeled or ^13C-labeled metabolite peaks were extracted using EL-Maven with a metabolite standard-based in-house library. For global metabolomic profiling, peak areas of metabolites were normalized by the median value of the total for identified metabolite peak areas in each sample. For the ^13C-labeled metabolite peaks, the natural isotope peak area was corrected using IsoCor (Version 2.2).

[3] = tested on: CAR T cells cocultured with Eμ-myc cells with or without macrophages (imMac); assay: Expansion assay of mCherry+ CAR T cells (IncuCyte live cell analysis) in cocultures; type: cell-based, mouse; conditions: CAR T cells and Eμ-myc cells with imMac, agent present (L-NIL 50 μM; anti-IFN-γ 10 μg/mL; c-PTIO); over 48 h
Description: Macrophage development and polarization: BMDMs were generated from bone marrow cells harvested from femurs and tibias of WT or iNOS^−/− mice. […] On day 3, 10 ml of fresh medium with 20 ng/ml M-CSF was added. On day 5, the culture medium was entirely discarded and replaced by 15 ml of fresh medium with 20 ng/ml M-CSF. On day 6, BMDMs were activated for 24 h with 20 ng/ml of IL-4 and IL-10 (Peprotech) to develop imMac or cultured in media only to use as unMac. M-CSF (20 ng/ml) was added during activation with cytokines. On day 7, adherent cells were harvested by gentle scraping and used for in vitro experiments.
Expansion assay: The expansion of mCherry^+ CAR T cells was determined by an IncuCyte S3 live cell analysis system (Essen Bioscience). 2×10^4 Eμ-myc cells and 2×10^4 CAR T cells were cocultured in the absence or presence of 0.5×10^4 macrophages (CAR T:Eμ-myc cell:Macrophage=1:1:0.25, unless otherwise indicated in the figures) in a 96-well black-walled clear bottom plate in 120 μl of media. Cell images were captured at 4× magnification. The expansion index was calculated by dividing the total integrated red intensity (RCU×m^2/mm^2) at each time point by the first time point.
Immunoregulatory actions of macrophages on CAR T cells: To explore how M2-like macrophages may impact the cellular function of CAR T cells, the study employed a syngeneic coculture system (FIG. 3A). […] The BMDMs were either unpolarized (unMac) or induced to differentiate into M2-like macrophages by culturing with type 2 cytokines IL-4 and IL-10. […] The study next explored the impact of imMac on CAR T cell effector function. To exclude the direct contribution of macrophage effector activities in these functional assays, CAR T cells, Eμ-myc cells, and macrophages were first cocultured for 48 hours (FIG. 3G). Next, CAR T cells isolated from the cocultures were evaluated for their effector function against fresh Eμ-myc cells.

Eμ-myc B cell tumors = assay: Survival of Eμ-myc tumor-bearing mice treated with CAR T cells and L-NIL; type: in vivo, mouse; conditions: combination of 1928z CAR T cells and L-NIL (i.p. once per day, 20 mg/kg) compared to 1928z CAR T cells alone; Eμ-myc tumors in peritoneal cavity
Description: Animal experiment: Six- to 10-week-old Rag1^+/+ mice of both sexes were intraperitoneally (i.p.) injected with 3×10^6 Eμ-myc-GFP-FFL cells to generate tumors localized in peritoneal cavity. Tumor engraftment was verified by bioluminescence imaging one day before CAR T cell transfer. Mice were randomized to different treatment groups without differences in pre-treatment tumor load. Seven days after tumor cell inoculation, mice were injected i.p. with 5×10^6 CAR T cells in 300 μl PBS. For survival experiments, L-NIL or PBS was administered i.p. once per day at 20 mg/kg body weight starting on the same day of tumor cell injection. […] Bioluminescence imaging was performed by IVIS Lumina III In Vivo Imaging System (PerkinElmer) with Living Image software (PerkinElmer).

## CC(=N)NCCCC[C@H](N)C(=O)O.Cl [L-NIL, N^6-(1-Iminoethyl)-lysine, hydrochloride]
iNOS
  production of NO in cocultures with imMac: attenuated
[1]
  production of effector cytokine IFN-γ by CAR T cells: preserved
  production of effector cytokine TNF-α by CAR T cells: preserved
[2]; coculture supernatants
  production of citrulline in cocultures with imMac: attenuated
[2]; cocultures with imMac
  levels of arginine in coculture supernatants: remained comparable
  levels of ornithine in coculture supernatants: remained comparable
[3]
  CAR T cell expansion in cocultures with imMac: complete rescue of CAR T cell expansion
Eμ-myc B cell tumors
  survival of tumor-bearing mice: significantly improved survival
